# Measured values taken from PubChem BioAssay (NCI).
#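 Cells were grown in 96-well plates and exposed to each compound for 48 hours at five concentrations; endpoints were interpolated linearly between bracketing concentrations, or set to the highest concentration if not reached. At the GI50, growth is halved. TGI denotes the concentration required for complete inhibition of growth.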
# Key:
# Experiment in all cases: DTP human tumour cell line panel, 48 h
# SNB-19 CNS = system: SNB-19 CNS
# M14 melanoma = system: M14 melanoma
# OVCAR-4 ovarian = system: OVCAR-4 ovarian
# 786-0 renal = system: 786-0 renal
# SF-268 CNS = system: SF-268 CNS
# ACHN renal = system: ACHN renal
# HL-60(TB) leukemia = system: HL-60(TB) leukemia
# SNB-75 CNS = system: SNB-75 CNS
# U251 CNS = system: U251 CNS
# OVCAR-5 ovarian = system: OVCAR-5 ovarian
# HT29 colon = system: HT29 colon
# OVCAR-8 ovarian = system: OVCAR-8 ovarian
# UACC-62 melanoma = system: UACC-62 melanoma
# OVCAR-3 ovarian = system: OVCAR-3 ovarian
# MALME-3M melanoma = system: MALME-3M melanoma
# LOX IMVI melanoma = system: LOX IMVI melanoma
# SW-620 colon = system: SW-620 colon
# PC-3 prostate = system: PC-3 prostate
# K-562 leukemia = system: K-562 leukemia
# DU-145 prostate = system: DU-145 prostate
# NCI-H23 lung = system: NCI-H23 lung
# RXF 393 renal = system: RXF 393 renal
# SF-539 CNS = system: SF-539 CNS
# UACC-257 melanoma = system: UACC-257 melanoma
# MDA-MB-435 = system: MDA-MB-435
# NCI-H522 lung = system: NCI-H522 lung
# CAKI-1 renal = system: CAKI-1 renal
# SN12C renal = system: SN12C renal
# SK-OV-3 ovarian = system: SK-OV-3 ovarian
# HOP-62 NSCLC = system: HOP-62 NSCLC
# MCF7 breast = system: MCF7 breast
# COLO 205 colon = system: COLO 205 colon
# A498 renal = system: A498 renal
# MDA-MB-468 breast = system: MDA-MB-468 breast
# NCI-H460 lung = system: NCI-H460 lung
# EKVX NSCLC = system: EKVX NSCLC
# HCT-15 colon = system: HCT-15 colon
# HCC-2998 colon = system: HCC-2998 colon
# T-47D breast = system: T-47D breast
# SK-MEL-2 melanoma = system: SK-MEL-2 melanoma
# MOLT-4 leukemia = system: MOLT-4 leukemia
# SK-MEL-5 melanoma = system: SK-MEL-5 melanoma
# BT-549 breast = system: BT-549 breast
# NCI-H226 lung = system: NCI-H226 lung
# SK-MEL-28 melanoma = system: SK-MEL-28 melanoma
# MDA-MB-231 breast = system: MDA-MB-231 breast
# SF-295 CNS = system: SF-295 CNS
# TK-10 renal = system: TK-10 renal
# IGROV1 ovarian = system: IGROV1 ovarian
# HCT-116 colon = system: HCT-116 colon
# CCRF-CEM leukemia = system: CCRF-CEM leukemia
# A549 NSCLC = system: A549 NSCLC
# KM12 colon = system: KM12 colon
# RPMI-8226 leukemia = system: RPMI-8226 leukemia
# HS 578T breast = system: HS 578T breast
# UO-31 renal = system: UO-31 renal
# HOP-92 NSCLC = system: HOP-92 NSCLC
# NCI/ADR-RES ovarian = system: NCI/ADR-RES ovarian
smiles,measurement,setting,value
C=C1CC[C@@H]2[C@]3(C)COC(c4ccco4)O[C@@H]3CC[C@@]2(C)[C@@H]1C/C=C1/C(=O)OCC1OC(C)=O (stereo partly specified),GI50,SNB-19 CNS,25.3 µM
same,TGI,SNB-19 CNS,84.2 µM
same,GI50,M14 melanoma,16.3 µM
same,TGI,M14 melanoma,34.2 µM
same,GI50,OVCAR-4 ovarian,13.5 µM
same,TGI,OVCAR-4 ovarian,38.4 µM
same,GI50,786-0 renal,18 µM
same,TGI,786-0 renal,32.8 µM
same,GI50,SF-268 CNS,27.9 µM
same,TGI,SF-268 CNS,> 100 µM
same,GI50,ACHN renal,14.9 µM
same,TGI,ACHN renal,28.8 µM
same,GI50,HL-60(TB) leukemia,9.35 µM
same,TGI,HL-60(TB) leukemia,85.6 µM
same,GI50,SNB-75 CNS,5.83 µM
same,TGI,SNB-75 CNS,49.6 µM
same,GI50,U251 CNS,15.2 µM
same,TGI,U251 CNS,28.6 µM
same,GI50,OVCAR-5 ovarian,17.6 µM
same,TGI,OVCAR-5 ovarian,31.9 µM
same,GI50,HT29 colon,13.8 µM
same,TGI,HT29 colon,30.7 µM
same,GI50,OVCAR-8 ovarian,12.8 µM
same,TGI,OVCAR-8 ovarian,28.7 µM
same,GI50,UACC-62 melanoma,13.6 µM
same,TGI,UACC-62 melanoma,28.8 µM
same,GI50,OVCAR-3 ovarian,10.8 µM
same,TGI,OVCAR-3 ovarian,26.6 µM
same,GI50,MALME-3M melanoma,14.7 µM
same,TGI,MALME-3M melanoma,29.3 µM
same,GI50,LOX IMVI melanoma,11.8 µM
same,TGI,LOX IMVI melanoma,24.1 µM
same,GI50,SW-620 colon,9.77 µM
same,TGI,SW-620 colon,23.8 µM
same,GI50,PC-3 prostate,13.2 µM
same,TGI,PC-3 prostate,39.6 µM
same,GI50,K-562 leukemia,5.84 µM
same,TGI,K-562 leukemia,> 100 µM
same,GI50,DU-145 prostate,15.2 µM
same,TGI,DU-145 prostate,29.5 µM
same,GI50,NCI-H23 lung,17.6 µM
same,TGI,NCI-H23 lung,35.2 µM
same,GI50,RXF 393 renal,11.1 µM
same,TGI,RXF 393 renal,24.9 µM
same,GI50,SF-539 CNS,14 µM
same,TGI,SF-539 CNS,27 µM
same,GI50,UACC-257 melanoma,15.5 µM
same,TGI,UACC-257 melanoma,32.8 µM
same,GI50,MDA-MB-435,15.6 µM
same,TGI,MDA-MB-435,37 µM
same,GI50,NCI-H522 lung,13.6 µM
same,TGI,NCI-H522 lung,26.7 µM
same,GI50,CAKI-1 renal,15.8 µM
same,TGI,CAKI-1 renal,32.2 µM
same,GI50,SN12C renal,14.4 µM
same,TGI,SN12C renal,30.6 µM
same,GI50,SK-OV-3 ovarian,57.7 µM
same,TGI,SK-OV-3 ovarian,> 100 µM
same,GI50,HOP-62 NSCLC,21.8 µM
same,TGI,HOP-62 NSCLC,55.7 µM
same,GI50,MCF7 breast,12.4 µM
same,TGI,MCF7 breast,32.4 µM
same,GI50,COLO 205 colon,16 µM
same,TGI,COLO 205 colon,31.3 µM
same,GI50,A498 renal,> 100 µM
same,TGI,A498 renal,> 100 µM
same,GI50,MDA-MB-468 breast,13.4 µM
same,TGI,MDA-MB-468 breast,26.6 µM
same,GI50,NCI-H460 lung,18.2 µM
same,TGI,NCI-H460 lung,38.6 µM
same,GI50,EKVX NSCLC,14.5 µM
same,TGI,EKVX NSCLC,31.4 µM
same,GI50,HCT-15 colon,15.6 µM
same,TGI,HCT-15 colon,38.4 µM
same,GI50,HCC-2998 colon,16.8 µM
same,TGI,HCC-2998 colon,31.4 µM
same,GI50,T-47D breast,18.6 µM
same,TGI,T-47D breast,55.1 µM
same,GI50,SK-MEL-2 melanoma,14.6 µM
same,TGI,SK-MEL-2 melanoma,29 µM
same,GI50,MOLT-4 leukemia,19.6 µM
same,TGI,MOLT-4 leukemia,> 100 µM
same,GI50,SK-MEL-5 melanoma,15.8 µM
same,TGI,SK-MEL-5 melanoma,31.3 µM
same,GI50,BT-549 breast,15 µM
same,TGI,BT-549 breast,29.1 µM
same,GI50,NCI-H226 lung,16.6 µM
same,TGI,NCI-H226 lung,35.1 µM
same,GI50,SK-MEL-28 melanoma,15.7 µM
same,TGI,SK-MEL-28 melanoma,29.7 µM
same,GI50,MDA-MB-231 breast,15 µM
same,TGI,MDA-MB-231 breast,30.9 µM
same,GI50,SF-295 CNS,25.9 µM
same,TGI,SF-295 CNS,> 100 µM
same,GI50,TK-10 renal,25.9 µM
same,TGI,TK-10 renal,62.4 µM
same,GI50,IGROV1 ovarian,16.5 µM
same,TGI,IGROV1 ovarian,34.2 µM
same,GI50,HCT-116 colon,10.8 µM
same,TGI,HCT-116 colon,26 µM
same,GI50,CCRF-CEM leukemia,2.56 µM
same,TGI,CCRF-CEM leukemia,9.9 µM
same,GI50,A549 NSCLC,28.2 µM
same,TGI,A549 NSCLC,> 100 µM
same,GI50,KM12 colon,21.7 µM
same,TGI,KM12 colon,68.7 µM
same,GI50,RPMI-8226 leukemia,3.11 µM
same,TGI,RPMI-8226 leukemia,38.1 µM
same,GI50,HS 578T breast,26.1 µM
same,TGI,HS 578T breast,> 100 µM
same,GI50,UO-31 renal,13.2 µM
same,TGI,UO-31 renal,26 µM
same,GI50,HOP-92 NSCLC,12.3 µM
same,TGI,HOP-92 NSCLC,45.2 µM
same,GI50,NCI/ADR-RES ovarian,17 µM
same,TGI,NCI/ADR-RES ovarian,38 µM
